Assay [1] can be described thus: Inhibition of HIV-1 reverse transcriptase Y181C mutant assessed as reduction in luciferase reporter activity by single-round assay. For orientation: In a reporter assay the amount or activity of a reporter protein is the signal.
A short description of assay [2]: Inhibition of wild type HIV-1 reverse transcriptase assessed as reduction in luciferase reporter activity by single-round assay.
Assay [3] is described as follows: Inhibition of HIV-1 reverse transcriptase E138K mutant assessed as reduction in luciferase reporter activity by single-round assay.
The nature of assay [4]: Inhibition of HIV-1 reverse transcriptase Y188L mutant assessed as reduction in luciferase reporter activity by single-round assay.
Assay [5] is described as follows: Inhibition of HIV-1 reverse transcriptase K103N mutant assessed as reduction in luciferase reporter activity by single-round assay.

Turning to `Cc1cc(/C=C/C#N)cc(C)c1Nc1ncc2ncn(-c3ccc(C#N)cc3)c2n1`, the EC50 (usually the midpoint of the concentration-response curve) amounted to 26 nM in assay [1]; 4.5 nM in assay [2]; 25 nM in assay [3]; 91 nM in assay [4]; 6.5 nM in assay [5].

On to `Cc1cc(/C=C/C#N)cc(C)c1-n1cnc2cnc(Nc3ccc(C#N)cc3)nc21`, for which the EC50 in assay [1] was determined as 1.5 nM; in assay [2], 0.2 nM; in assay [3] it was 0.7 nM; in assay [4], 9.6 nM; in assay [5], 0.4 nM.

`Cc1cc(/C=C/C#N)cc(C)c1Nc1ccnc(Nc2ccc(C#N)cc2)n1` [Rilpivirine]: in assay [2], the EC50 came out at 0.4 nM.
